Values quoted from earlier work in paper PMC9088311, “Cyclic Thiosulfonates for Thiol-Mediated Uptake: Cascade Exchangers, Transporters, Inhibitors” (JACS Au, 2022).
pIC50: −log10 of the molar value. Converted amounts (≈) assume the structure as drawn.

Tested on: HK cells, transporter 32
Parameters: method as in PMID 34173696
Settings: transporter 32 0.5 or 1 μM, pre-incubation (P), cited from earlier work

For `O=S1(=O)C[C@H](O)[C@H](O)CS1` (stereo in doubt) [Compound 3, (4S,5R)-4,5-dihydroxy-1,2-dithiane-1,1-dioxide], the pIC50 (read-out: IC50 (concentration needed to reach 50% inhibition)) is listed as 3.26 and the “MIC (concentration needed to reach 15% inhibition)” value is listed as 250 µM (≈ 46.1 µg/mL).
